# Compound: C1CCC(CC1)N(CCNCCC2=C3C(=C(C=C2)O)NC(=O)CO3)C(=O)CCNCCC4=CC(=C(C=C4)Cl)Cl [AZ505] + CC(=O)Nc1cccc(-n2c(=O)n(C3CC3)c(=O)c3c(Nc4ccc(I)cc4F)n(C)c(=O)c(C)c32)c1 [Trametinib] (partner 0.02 µM)
# Test: relative viability (nuclei count vs DMSO), 5 days (fraction); higher = more cells survive
# Settings: first compound 0.08 µM
# Outline: (§1)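 Lung cancer cell lines were seeded in 1536-well plates and dosed by pin tool the next day, with either a single drug or a fixed anchor-drug dose combined with five library-drug doses (not always all listed) spaced in √10 steps. Five days later, one step fixed the cells and stained their nuclei (final 0.05% Triton X-100, 1% formaldehyde, 1 ug/ml Hoechst), and nuclei were counted on 4× images. Relative viability is the nuclei count in treated wells divided by the count in vehicle wells, and each value is the median of duplicate plates.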
row,Cell Line,relative viability
1,PC-14,0.711
2,LC-2-ad,0.844
3,NCI-H1975,0.351
4,RERF-LC-KJ,0.863
5,NCI-H650,0.98
6,PC-3 [JPC-3],0.596

# Same assay, conditions: first compound 0.253 µM
row,Cell Line,relative viability
1,PC-14,0.884
2,EKVX,0.326
3,LC-2-ad,0.885
4,NCI-H1975,0.315
5,RERF-LC-KJ,0.958
6,NCI-H650,0.841

# Same assay, conditions: first compound 0.8 µM
row,Cell Line,relative viability
1,PC-14,0.76
2,EKVX,0.321
3,LC-2-ad,0.894
4,NCI-H1975,0.377
5,RERF-LC-KJ,0.797
6,NCI-H650,0.924
7,PC-3 [JPC-3],0.694

# Same assay, conditions: first compound 2.53 µM
row,Cell Line,relative viability
1,PC-14,0.747
2,EKVX,0.414
3,LC-2-ad,0.889
4,NCI-H1975,0.356
5,RERF-LC-KJ,0.878
6,NCI-H650,0.893
7,PC-3 [JPC-3],0.704

# Same assay, conditions: first compound 8 µM
row,Cell Line,relative viability
1,PC-14,0.786
2,EKVX,0.397
3,LC-2-ad,0.947
4,NCI-H1975,0.332
5,RERF-LC-KJ,0.71
6,NCI-H650,1.15
7,PC-3 [JPC-3],0.693

# Compound: C1CCC(CC1)N(CCNCCC2=C3C(=C(C=C2)O)NC(=O)CO3)C(=O)CCNCCC4=CC(=C(C=C4)Cl)Cl [AZ505] + Nc1ncn([C@H]2C[C@H](O)[C@@H](CO)O2)c(=O)n1 [Decitabine] (partner 2 µM)
# Test: as above
# Settings: first compound 0.08 µM
# Outline: as §1
row,Cell Line,relative viability
1,PC-14,0.2
2,LC-2-ad,0.797
3,NCI-H1975,0.345
4,RERF-LC-KJ,0.719
5,NCI-H650,0.311
6,PC-3 [JPC-3],0.849

# Same assay, conditions: first compound 0.253 µM
row,Cell Line,relative viability
1,PC-14,0.261
2,EKVX,0.35
3,LC-2-ad,0.835
4,NCI-H1975,0.355
5,RERF-LC-KJ,0.664
6,NCI-H650,0.343

# Same assay, conditions: first compound 0.8 µM
row,Cell Line,relative viability
1,PC-14,0.272
2,EKVX,0.318
3,LC-2-ad,0.776
4,NCI-H1975,0.407
5,RERF-LC-KJ,0.757
6,NCI-H650,0.301
7,PC-3 [JPC-3],0.861

# Same assay, conditions: first compound 2.53 µM
row,Cell Line,relative viability
1,PC-14,0.192
2,EKVX,0.349
3,LC-2-ad,0.776
4,NCI-H1975,0.322
5,RERF-LC-KJ,0.78
6,NCI-H650,0.316
7,PC-3 [JPC-3],0.79

# Same assay, conditions: first compound 8 µM
row,Cell Line,relative viability
1,PC-14,0.258
2,EKVX,0.349
3,LC-2-ad,0.841
4,NCI-H1975,0.403
5,RERF-LC-KJ,0.567
6,NCI-H650,0.288
7,PC-3 [JPC-3],0.79

# Compound: Cn1c(=O)n(-c2ccc(C(C)(C)C#N)cc2)c2c3cc(-c4cnc5ccccc5c4)ccc3ncc21 [Dactolisib] + C[C@@H](Oc1cc(-c2cnn(C3CCNCC3)c2)cnc1N)c1c(Cl)ccc(F)c1Cl [Crizotinib] (partner 1 µM)
# Test: as above
# Settings: first compound 0.002 µM
# Outline: as §1
row,Cell Line,relative viability
1,PC-14,0.918
2,EKVX,0.971

# Source: the supplement of paper PMC10307832
